Assay [1] has as its system Staph. aureus Russell. The assay can be described thus: MIC by standard microtitre method, alone and in admixture with ampicillin. The assay is classed as cell-based. The conditions noted are these: compound alone; for MIC: Staphylococcus aureus. The method, then:
(§1) The MICs of ampicillin, 9-O-(N-glycyl)-2-amino- ethylclavulanic acid (GAECA) alone and in admixture against a number of bacteria were determined by a standard microtitre method. The results obtained were as follows: The MICs of ampicillin, 9-O-(N-alanyl)-2-amino- ethylclavulanic acid (AAECA) alone and in admixture against a number of bacteria were determined by a standard microtitre method.

Assay [2] has as its system Proteus C 889. Described as above. The class given is cell-based. The note with it: compound alone. The method, then:
as §1

For assay [3], the system named is Klebsiella aerog. E.70. The description is as above. The class given is cell-based. The note with it: compound alone. The protocol: as §1
Assay [4] concerns E. coli JT 39. The description is as above. The class given is cell-based. The conditions noted are these: Escherichia coli, JT39; compound alone. The protocol: as §1
For assay [5], the system named is E.Col: E96 (R + strain). The experiment in a line: Synergistic activity in mice infected intraperitoneally. The conditions noted are these: mice infected intraperitoneally with E.Col: E96 (R + strain); oral and sub-cutaneous route. The assay is classed as in vivo. From the text:
The results obtained were as follows: • Synergistic activity in Mice infected intraperitoneally with E.Col: E96 (R + strain) [formula]

Values after ≈ are worked out from the molar mass of the structure shown.

For orientation: MIC means the lowest concentration that inhibits growth of the organism. `C[C@H](N)C(=O)NCCOC/C=C1\O[C@@H]2CC(=O)N2[C@H]1C(=O)O` [AAECA, 9-0-(N-L-alanyl)-2-aminoethylclavulanic acid]: the MIC came to 8 µg/mL (≈ 25.5 µM) in assay [1], 250 µg/mL (≈ 798 µM) in assay [2], 125 µg/mL (≈ 399 µM) in assay [3] and 16 µg/mL (≈ 51.1 µM) in assay [4]. The “Synergistic activity in vivo” value in assay [5] is “good activity in vivo by both the oral and sub-cutaneous route”.
Turning to `CC1(C)S[C@@H]2[C@H](NC(=O)[C@H](N)c3ccccc3)C(=O)N2[C@H]1C(=O)O` [Ampicillin, ampicillin, reference compound], the MIC is 250 µg/mL (≈ 715 µM) in assay [1], 2000 µg/mL (≈ 5720 µM) in assay [2], 500 µg/mL (≈ 1430 µM) in assay [3] and 2000 µg/mL (≈ 5720 µM) in assay [4]. Moreover, in assay [1], the “MIC (µg/ml) Staph. aureus Russell” value came to 500 µg/mL (≈ 1430 µM). The “MIC (µg/ml) Proteus C 889” value in assay [2] is 1000 µg/mL (≈ 2860 µM).
As to `NCC(=O)NCCOC/C=C1\O[C@@H]2CC(=O)N2[C@H]1C(=O)O` [GAECA, 9-0-(N-Glycyl)-2-aminoethylclavulanic acid], the MIC was determined as 8 µg/mL (≈ 26.7 µM) in assay [1], 250 µg/mL (≈ 835 µM) in assay [2], 62.5 µg/mL (≈ 209 µM) in assay [3] and 51.2 µg/mL (≈ 171 µM) in assay [4].

These data come from EP0013790A1, “Clavulanic acid derivatives, their preparation and pharmaceutical compositions containing them” (BEECHAM GROUP PLC, priority 1978, dated 1980).
